US10676429B2, “Sulfamoyl-arylamides and the use thereof as medicaments for the treatment of hepatitis B” (priority 2012, dated 2020)

Assays:
[1] = test system: HBV; assay: Anti-HBV activity in stable transfected HepG2.2.15 cell line (HBV DNA from secreted virions, realtime PCR); assay type: cell-based; settings: HepG2.2.15 cells, 6 days of treatment, secreted virion HBV DNA, read-out: HepG2 2.15 EC50
[2] = test system: HBV; assay: Anti-HBV activity in HepG2.117 cell line (Tet-off, intracellular HBV DNA, realtime PCR); assay type: cell-based; settings: HepG2.117 cells, 3 days of treatment, intracellular HBV DNA, read-out: HepG2 117 EC50
[3] = test system: HepG2 cells; assay: Cytotoxicity in HepG2 cells, 4 days, Resazurin assay; settings: read-out: HepG2 4 days CC50; HepG2 cells, 4 days, Resazurin
[4] = Cytotoxicity in HepG2 cells using CellTiter-Blue (6 days); settings: human
[5] = Cytotoxicity in HepG2 cells, 4 days, Resazurin assay; settings: human, HepG2 cells
[6] = Hepatitis B virus, HepG2.2.15, 144 h
[7] = Hepatitis B virus, HepG2.117, 72 h

SMILES	EC50 [1] [nM]	EC50 [2] [nM]	CC50 [3] [nM]	EC50 [1, 6] [nM]	EC50 [2, 7] [nM]	CC50 at 6 days [4] [nM]	CC50 at 4 days [5] [nM]
Cc1cc(NC(=O)c2cccc(S(=O)(=O)NC3CC(=O)N(C)C3)c2)ccc1F (racemic) [Compound 179a]	380	250	> 25000	–	–	–	–
Cc1cc(NC(=O)c2cccc(S(=O)(=O)NC3CC(=O)N(C)C3)c2)ccc1F (racemic) [Compound 179b]	1110	1840	> 25000	–	–	–	–
Cc1cc(NC(=O)c2cccc(S(=O)(=O)NC3Cc4ccccc4C3O)c2)ccc1F (single isomer, unassigned) [Compound 141b, N-(4-fluoro-3-methyl-phenyl)-3-[[(1R,2S)-1-hydroxyindan-2-yl]sulfamoyl]benzamide or N-(4-fluoro-3-methyl-phenyl)-3-[[(1S,2R)-1-hydroxyindan-2-yl]sulfamoyl]benzamide]	270	230	> 25000	–	–	–	–
Cc1cc(NC(=O)c2cccc(S(=O)(=O)NC3Cc4ccccc4C3O)c2)ccc1F (single isomer, unassigned) [Compound 141c, N-(4-fluoro-3-methyl-phenyl)-3-[[(1S,2S)-1-hydroxyindan-2-yl]-sulfamoyl]benzamide or N-(4-fluoro-3-methyl-phenyl)-3-[[(1R,2R)-1-hydroxyindan-2-yl]sulfamoyl]benzamide]	170	290	> 25000	–	–	–	–
Cc1cc(NC(=O)c2cccc(S(=O)(=O)NC3Cc4ccccc4C3O)c2)ccc1F (single isomer, unassigned) [Compound 141d, N-(4-fluoro-3-methyl-phenyl)-3-[[(1R,2S)-1-hydroxyindan-2-yl]sulfamoyl]benzamide or N-(4-fluoro-3-methyl-phenyl)-3-[[(1S,2R)-1-hydroxyindan-2-yl]sulfamoyl]benzamide]	560	1140	> 25000	–	–	–	–
Cc1cc(NC(=O)c2cccc(S(=O)(=O)NC3CCC(O)C3)c2)ccc1F (single isomer, unassigned) [Compound 145b, N-(4-fluoro-3-methyl-phenyl)-3-[[(1R,3S)-3-hydroxycyclopentyl]sulfamoyl]benzamide or N-(4-fluoro-3-methyl-phenyl)-3-[[(1S,3R)-3-hydroxycyclopentyl]sulfamoyl]benzamide]	440	580	> 25000	–	–	–	–
Cc1cc(NC(=O)c2cccc(S(=O)(=O)NC3CCC(O)C3)c2)ccc1F (single isomer, unassigned) [Compound 145c, N-(4-fluoro-3-methyl-phenyl)-3-[[(1S,3S)-3-hydroxycyclopentyl]-sulfamoyl]benzamide or N-(4-fluoro-3-methyl-phenyl)-3-[[(1R,3R)-3-hydroxycyclopentyl]sulfamoyl]benzamide]	340	340	> 25000	–	–	–	–
Cc1cc(NC(=O)c2cccc(S(=O)(=O)NC3CCC(O)C3)c2)ccc1F (single isomer, unassigned) [Compound 145d, N-(4-fluoro-3-methyl-phenyl)-3-[[(1S,3S)-3-hydroxycyclopentyl]-sulfamoyl]benzamide or N-(4-fluoro-3-methyl-phenyl)-3-[[(1R,3R)-3-hydroxycyclopentyl]sulfamoyl]benzamide]	400	640	> 25000	–	–	–	–
O=C(Nc1ccc(F)cc1)c1cccc(S(=O)(=O)NC2CCOCC2)c1 [Compound 1]	–	–	> 100000	930	1670	–	–
O=C(Nc1ccc(F)cc1)c1cccc(S(=O)(=O)NC2CCCC2)c1 [Compound 2]	–	–	32700	470	560	–	–
O=C(Nc1ccc(F)cc1)c1cccc(S(=O)(=O)NC2COC2)c1 [Compound 3]	–	–	> 100000	2100	3050	–	–
O=C(Nc1ccc(F)cc1)c1cccc(S(=O)(=O)NC2CCC2)c1 [Compound 5]	–	–	57700	830	900	–	–
O=C(Nc1ccc(F)cc1)c1cccc(S(=O)(=O)NC2CCCCC2)c1 [Compound 6]	–	–	> 25000	–	580	–	–
O=C(Nc1ccc(F)cc1)c1cccc(S(=O)(=O)N[C@@H]2CCOC2)c1 [Compound 8]	–	–	> 100000	1180	2030	–	–
O=C(Nc1ccc(F)cc1)c1cccc(S(=O)(=O)N[C@H]2CCOC2)c1 [Compound 9]	–	–	> 100000	540	1360	–	–
CCC(CC)NS(=O)(=O)c1cccc(C(=O)Nc2ccc(F)cc2)c1 [Compound 10]	–	–	40300	750	3630	–	–
Cc1cccc(NC(=O)c2cc(S(=O)(=O)N3CCCCC3)ccc2Cl)c1 [Compound 22]	–	–	–	520	–	> 25000	–
O=C(Nc1cccc(F)c1)c1cc(S(=O)(=O)N2CCCC2)c(Cl)cc1Cl [Compound 24]	–	–	–	790	–	> 25000	–
O=C(Nc1ccccc1)c1cc(S(=O)(=O)NCc2ccccc2)ccc1Cl [Compound 25]	–	–	–	800	1020	> 25000	> 6250
Cc1cccc(NC(=O)c2cc(S(=O)(=O)N3CCOCC3)ccc2Cl)c1 [Compound 27]	–	–	–	1130	–	> 25000	–
CC(C)(C)NS(=O)(=O)c1cccc(C(=O)Nc2ccc(F)cc2)c1 [Compound 28]	–	–	52500	1240	2280	–	–
O=C(Nc1ccc(F)cc1)c1cc(S(=O)(=O)N2CCOCC2)ccc1Cl [Compound 29]	–	–	–	1390	–	> 25000	–
O=C(Nc1ccc(Br)cc1)c1ccc(Cl)c(S(=O)(=O)N2CCCCCC2)c1 [Compound 30]	–	–	–	1670	–	> 25000	–

SMILES	EC50 [1] [nM]	EC50 [2] [nM]	CC50 [3] [nM]	EC50 [1, 6] [nM]	EC50 [2, 7] [nM]	CC50 at 6 days [4] [nM]	CC50 at 4 days [5] [nM]
O=C(Nc1ccccc1Cl)c1ccc(Cl)c(S(=O)(=O)N2CCCCCC2)c1 [Compound 33]	–	–	–	3560	–	> 25000	–
O=C(Nc1ccc(F)cc1)c1cccc(S(=O)(=O)N2CCCCC2)c1 [Compound 35]	–	–	70400	4500	2700	–	–
CN(C)S(=O)(=O)c1cccc(C(=O)Nc2ccc(F)cc2)c1 [Compound 37]	–	–	> 100000	5020	2990	–	–
CC(=O)N1CCC(NS(=O)(=O)c2cccc(C(=O)Nc3ccc(F)cc3)c2)CC1 [Compound 39]	–	–	> 100000	6770	4680	–	–
CC(=O)N1CCN(S(=O)(=O)c2cccc(C(=O)Nc3ccc(F)cc3)c2)CC1 [Compound 40]	–	–	> 100000	7100	6290	–	–
O=C(Nc1ccc(F)cc1)c1cccc(S(=O)(=O)N2CCOCC2)c1 [Compound 41]	–	–	> 100000	8490	11000	–	–
O=C(Nc1ccccc1Cl)c1cc(S(=O)(=O)NC2CCCCC2)ccc1F [Compound 42]	–	–	–	11600	> 25000	37200	–
CN1CCN(S(=O)(=O)c2cccc(C(=O)Nc3ccc(F)cc3)c2)CC1 [Compound 44]	–	–	> 100000	26500	11100	–	–
CN1CCC(NS(=O)(=O)c2cccc(C(=O)Nc3ccc(F)cc3)c2)CC1 [Compound 45]	–	–	> 100000	59300	16000	–	–
CN(C1CCCC1)S(=O)(=O)c1cccc(C(=O)Nc2ccc(F)cc2)c1 [Compound 46]	–	–	23800	2610	11100	–	–
CC(C)NS(=O)(=O)c1cccc(C(=O)Nc2ccc(F)cc2)c1 [Compound 47]	–	–	57500	740	960	–	–
O=C(Nc1cccc(F)c1)c1cccc(S(=O)(=O)NC2CCCC2)c1 [Compound 77]	–	–	> 25000	270	430	–	–
COc1cc(NC(=O)c2cccc(S(=O)(=O)N[C@H]3CCOC3)c2)ccc1F [Compound 103]	–	–	> 25000	2330	2660	–	–
Cc1c(F)ccc(NC(=O)c2cccc(S(=O)(=O)N[C@H]3CCOC3)c2)c1F [Compound 104]	–	–	> 25000	290	780	–	–
Cc1cc(NC(=O)c2cccc(S(=O)(=O)N[C@H]3CCOC3)c2)c(F)cc1F [Compound 106]	–	–	> 25000	2220	3300	–	–
Cc1c(F)ccc(NC(=O)c2cccc(S(=O)(=O)NC3(C)COC3)c2)c1C [Compound 115]	–	–	> 25000	2740	1650	–	–
Cc1c(NC(=O)c2cccc(S(=O)(=O)N[C@H]3CCOC3)c2)ccc(F)c1F [Compound 118]	–	–	> 25000	3630	1910	–	–
Cc1cc(NC(=O)c2cccc(S(=O)(=O)NC3(C)COC3)c2)c(C)cc1F [Compound 119]	–	–	> 25000	3060	1910	–	–
Cc1ccc(S(=O)(=O)NC2(C)COC2)cc1C(=O)Nc1ccc(F)c(C(F)(F)F)c1 [Compound 238]	–	–	–	610	500	–	> 25000
Cc1cc(NC(=O)c2ccc(F)c(S(=O)(=O)N[C@H]3CCOC3)c2)ccc1F [Compound 239]	–	–	–	480	530	–	> 25000
Cc1cc(NC(=O)c2cc(F)cc(S(=O)(=O)NC(C)C)c2)ccc1F [Compound 240]	–	–	–	400	2860	–	> 25000
Cc1cc(NC(=O)c2cc(F)cc(S(=O)(=O)N[C@H]3CCOC3)c2)ccc1F [Compound 241]	–	–	–	380	1790	–	> 25000
Cc1cc(NC(=O)c2cc(S(=O)(=O)N[C@H]3CCOC3)ccc2C(F)(F)F)ccc1F [Compound 242]	–	–	–	1910	1800	–	> 25000
